26 compounds from article PMC4904262 (ACS Medicinal Chemistry Letters, 2016) can be followed below.

Where only a bound is given, the exact number is not on record here.

The nature of data set [1]: in vitro. Particulars: human, microsomes.
The nature of data set [2]: in vitro. Particulars: rat, microsomes.
Data set [3] in a line: in vitro. Particulars: mouse, microsomes.
In a further data set the target is aldehyde oxidase (Homo sapiens, UniProt Q06278). Particulars: for % of parent compd remaining after 45 min: human, cytosol, 0.75 h, 1 µM.
For the next data set, the system named is Caco-2. Particulars: human.

Sequence of aldehyde oxidase (Q06278 whole entry): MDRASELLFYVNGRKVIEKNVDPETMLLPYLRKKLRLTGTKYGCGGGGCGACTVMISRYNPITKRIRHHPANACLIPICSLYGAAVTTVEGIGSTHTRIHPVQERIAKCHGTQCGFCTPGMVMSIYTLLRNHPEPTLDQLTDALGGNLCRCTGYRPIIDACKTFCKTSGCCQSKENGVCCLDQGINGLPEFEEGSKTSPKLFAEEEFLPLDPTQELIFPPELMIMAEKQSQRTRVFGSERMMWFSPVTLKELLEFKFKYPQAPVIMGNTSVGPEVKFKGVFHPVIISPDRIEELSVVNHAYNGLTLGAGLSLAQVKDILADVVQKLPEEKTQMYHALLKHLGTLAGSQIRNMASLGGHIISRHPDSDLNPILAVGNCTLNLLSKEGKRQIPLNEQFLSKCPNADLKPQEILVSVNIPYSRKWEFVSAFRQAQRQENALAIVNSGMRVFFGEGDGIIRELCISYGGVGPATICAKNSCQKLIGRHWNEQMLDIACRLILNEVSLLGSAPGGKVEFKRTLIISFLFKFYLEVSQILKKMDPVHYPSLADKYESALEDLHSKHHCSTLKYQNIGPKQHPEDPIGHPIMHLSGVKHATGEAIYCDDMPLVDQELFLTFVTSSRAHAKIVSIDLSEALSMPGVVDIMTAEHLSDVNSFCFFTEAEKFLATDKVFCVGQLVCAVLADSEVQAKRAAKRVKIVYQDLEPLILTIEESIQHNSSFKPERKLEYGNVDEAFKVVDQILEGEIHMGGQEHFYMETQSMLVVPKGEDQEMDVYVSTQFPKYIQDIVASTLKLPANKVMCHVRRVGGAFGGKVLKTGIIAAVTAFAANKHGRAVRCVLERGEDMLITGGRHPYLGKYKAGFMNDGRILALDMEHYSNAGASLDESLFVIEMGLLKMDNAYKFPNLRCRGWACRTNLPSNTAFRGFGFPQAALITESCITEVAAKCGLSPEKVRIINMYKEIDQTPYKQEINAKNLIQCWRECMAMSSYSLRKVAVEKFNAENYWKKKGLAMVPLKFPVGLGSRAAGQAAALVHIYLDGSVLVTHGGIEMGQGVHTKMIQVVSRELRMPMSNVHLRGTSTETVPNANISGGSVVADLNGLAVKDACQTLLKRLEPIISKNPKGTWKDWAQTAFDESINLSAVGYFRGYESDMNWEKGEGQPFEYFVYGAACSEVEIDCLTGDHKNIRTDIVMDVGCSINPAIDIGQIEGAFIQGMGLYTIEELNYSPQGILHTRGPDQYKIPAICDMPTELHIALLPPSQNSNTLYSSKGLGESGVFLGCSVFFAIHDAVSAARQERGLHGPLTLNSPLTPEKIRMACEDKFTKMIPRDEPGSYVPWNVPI

A word on the microsomal CLint: it is a measure of how fast metabolising enzymes remove a compound, apart from limits set by blood flow. For `CNC(=O)c1ccc2cncc(-c3ccc(-c4cnn(C)c4)cc3)c2n1` [Compound 4], the intrinsic clearance (microsomal CLint) at 1 µM in the data set “in vitro [1]” amounted to 40 µL/min/mg; in the data set “in vitro [3]”, 172 µL/min/mg. Further, in the data set “in vitro [2]”, the intrinsic metabolic clearance (microsomal CLint) was over 1000 µL/min/mg.
Consider `CNC(=O)c1ccc2cncc(-c3ccc4c(cnn4C)c3)c2n1` [Compound 5], for which the values for the microsomal CLint at 1 µM in “in vitro [1]”, in “in vitro [2]” and in the data set “in vitro [3]” were 116 µL/min/mg, 699 µL/min/mg and 444 µL/min/mg, respectively.
The corresponding values for `CNC(=O)c1ccc2cncc(-c3ccc4cnn(C)c4c3)c2n1` [Compound 6] are 32 µL/min/mg, 178 µL/min/mg and 333 µL/min/mg.
For `Cn1cc(-c2ccc(-c3cncc4ccc(C(N)=O)nc34)cc2)cn1` [Compound 9], the figures for the microsomal CLint at 1 µM in the data set “in vitro [1]” and in “in vitro [3]” were 34 µL/min/mg and 155 µL/min/mg, respectively.
Regarding `Cn1cc(-c2ccc(-c3cncc4ccc(C(=O)N5CCC5)nc34)cc2)cn1` [Compound 12], the figures for the microsomal CLint at 1 µM in the data set “in vitro [1]”, in the data set “in vitro [2]” and in the data set “in vitro [3]” were 38 µL/min/mg, 85 µL/min/mg and 143 µL/min/mg, respectively.
Take `COC1CN(C(=O)c2ccc3cncc(-c4ccc(-c5cnn(C)c5)cc4)c3n2)C1` [Compound 13]: the “AO substrate (Enzyme assay)” value on aldehyde oxidase is recorded as “Yes”. The “% of parent compd remaining after 45 min” value on aldehyde oxidase came out at 0%. The microsomal CLint at 1 µM in the data set “in vitro [1]” turned out to be 35 µL/min/mg; in “in vitro [2]” it was 327 µL/min/mg; in the data set “in vitro [3]”, 95 µL/min/mg.
As for `Cn1cc(-c2ccc(-c3cncc4ccc(C(=O)N5CC(F)(F)C5)nc34)cc2)cn1` [Compound 14], the microsomal CLint at 1 µM in “in vitro [1]” came to 111 µL/min/mg; in the data set “in vitro [2]”, 317 µL/min/mg; in “in vitro [3]”, 160 µL/min/mg.
Take `Cn1cc(-c2ccc(-c3cncc4ccc(C(=O)N5CCCC5)nc34)cc2)cn1` [Compound 15]: the microsomal CLint at 1 µM in the data set “in vitro [1]” came out at 38 µL/min/mg; in “in vitro [2]”, 55 µL/min/mg; in “in vitro [3]” it was 321 µL/min/mg.
Regarding `Cn1cc(-c2ccc(-c3cncc4ccc(C(=O)N5CCOCC5)nc34)cc2)cn1` [Compound 16], the microsomal CLint at 1 µM in “in vitro [1]” came out at 41 µL/min/mg; in “in vitro [2]” it was 23 µL/min/mg; in the data set “in vitro [3]” it was 83 µL/min/mg.
Turning to `Cn1cc(-c2ccc(-c3cncc4ccc(N5CCNC5=O)nc34)cc2)cn1` [Compound 20], the microsomal CLint at 1 µM in the data set “in vitro [1]” was found to be 64 µL/min/mg; in the data set “in vitro [2]” it was 323 µL/min/mg; in “in vitro [3]” it was 246 µL/min/mg.
On to `Cn1cc(-c2ccc(-c3cncc4ccc(-c5ccnn5C)nc34)cc2)cn1` [Compound 23], for which the microsomal CLint at 1 µM in the data set “in vitro [1]” was 144 µL/min/mg; in “in vitro [2]”, 761 µL/min/mg; in the data set “in vitro [3]”, 310 µL/min/mg.
In the same order, the values of `Cn1cc(-c2ccc(-c3cncc4ccc(-c5ccn(C)n5)nc34)cc2)cn1` [Compound 24] are 45 µL/min/mg, 212 µL/min/mg and 299 µL/min/mg.
With `CNC(=O)c1ccc2cncc(-c3ccc(-c4cnn(C)c4)cc3)c2c1` [Compound 27], the “% of parent compd remaining after 45 min” value at aldehyde oxidase is on record as 0%. The values for the microsomal CLint at 1 µM in the data set “in vitro [1]” and in the data set “in vitro [3]” were 27 µL/min/mg and 275 µL/min/mg, respectively.
In the case of `Cn1cc(-c2ccc(-c3cncc4ccc(C(=O)NC5CC5)cc34)cc2)cn1` [Compound 28], the “AO substrate (Enzyme assay)” value at aldehyde oxidase is “Yes”. Besides, the microsomal CLint at 1 µM in the data set “in vitro [1]” is 31 µL/min/mg; in “in vitro [2]”, 98 µL/min/mg; in “in vitro [3]”, 141 µL/min/mg.
Take `COC1CN(C(=O)c2ccc3cncc(-c4ccc(-c5cnn(C)c5)cc4)c3c2)C1` [Compound 29]: at aldehyde oxidase, the “AO substrate (Enzyme assay)” value is reported as “Yes”. Also, the “% of parent compd remaining after 45 min” value on aldehyde oxidase amounted to 1%. The microsomal CLint at 1 µM was 56 µL/min/mg in “in vitro [1]”, 337 µL/min/mg in “in vitro [2]” and 403 µL/min/mg in “in vitro [3]”.
With `Cn1cc(-c2ccc(-c3cncc4ccc(-c5nccn5C)cc34)cc2)cn1` [Compound 33], the values for the microsomal CLint at 1 µM in the data set “in vitro [1]”, in “in vitro [2]” and in “in vitro [3]” were 398 µL/min/mg, 307 µL/min/mg and 570 µL/min/mg, respectively.
On to `Cn1cc(-c2ccc(-c3cnc(N)c4ccc(C(=O)N5CCOCC5)nc34)cc2)cn1` [Compound 50], for which, in the data set with Caco-2, the “Caco-2 ER” value was found to be 9 and the “Caco-2 PappA-B” value is on record as 34.0 × 10^–6 cm/s.
As for `Cn1cc(-c2ccc(-c3cnc(N)c4ccc(C(=O)N5CCC5)nc34)cc2)cn1` [Compound 52], the microsomal CLint at 1 µM in “in vitro [1]” worked out at 24 µL/min/mg; in “in vitro [2]” it was 38 µL/min/mg; in “in vitro [3]”, 61 µL/min/mg. Also, the “Caco-2 ER” value in the data set on Caco-2 is listed as 5.3. For the same compound, the “Caco-2 PappA-B” value in the data set on Caco-2 is 42.6 × 10^–6 cm/s.
In turn, `COC1(C)CN(C(=O)c2ccc3c(N)ncc(-c4ccc(-c5cnn(C)c5)cc4)c3n2)C1` [Compound 53] gave a microsomal CLint in the data set “in vitro [1]” of 25 µL/min/mg. In the data set “in vitro [2]”, this compound returned a microsomal CLint of 25 µL/min/mg. Moreover, in the data set with Caco-2, the “Caco-2 ER” value was determined as 5.8 and the “Caco-2 PappA-B” value is listed as 40.1 × 10^–6 cm/s. Further, the microsomal CLint at 1 µM in “in vitro [3]” was determined as 48 µL/min/mg.
For the compound `Cn1cc(-c2ccc(-c3cnc(N)c4ccc(C(=O)N5CC(F)(F)C5)nc34)cc2)cn1` [Compound 54], the microsomal CLint at 1 µM is 25 µL/min/mg in the data set “in vitro [1]”, 19 µL/min/mg in the data set “in vitro [2]” and 107 µL/min/mg in the data set “in vitro [3]”. Besides, the “Caco-2 ER” value in the data set on Caco-2 is 1.8. Moreover, the “Caco-2 PappA-B” value in the data set on Caco-2 is on record as 23.9 × 10^–6 cm/s.
Turning to `Cn1cc(-c2ccc(-c3cnc(N)c4ccc(C(=O)N5CC(C)(F)C5)nc34)cc2)cn1` [Compound 55], the microsomal CLint at 1 µM in the data set “in vitro [1]” was 20 µL/min/mg; in the data set “in vitro [2]”, 24 µL/min/mg; in “in vitro [3]” it was 125 µL/min/mg. Also, the “Caco-2 ER” value in the data set on Caco-2 is listed as 3.4. Further, in the data set on Caco-2, the “Caco-2 PappA-B” value is listed as 27.6 × 10^–6 cm/s.
Regarding `Cn1cc(-c2ccc(-c3cnc(N)c4ccc(C(=O)N5CCCC5)nc34)cc2)cn1` [Compound 56], the microsomal CLint at 1 µM in the data set “in vitro [1]” turned out to be 30 µL/min/mg; in “in vitro [2]”, 63 µL/min/mg; in the data set “in vitro [3]”, 81 µL/min/mg. Besides, in the data set with Caco-2, the “Caco-2 ER” value is reported as 5.0. Moreover, the “Caco-2 PappA-B” value in the data set with Caco-2 is 30 × 10^–6 cm/s.
`Cn1cc(-c2ccc(-c3cnc(N)c4ccc(C(=O)N5CCC5)cc34)cc2)cn1` [Compound 58]: in “in vitro [1]”, the microsomal CLint is under 10 µL/min/mg. For the same compound, the intrinsic clearance (microsomal CLint) at 1 µM in the data set “in vitro [2]” was 11 µL/min/mg. In addition, in the data set with Caco-2, the “Caco-2 ER” value is listed as 5.5 and the “Caco-2 PappA-B” value was 27.2 × 10^–6 cm/s. The compound further registered a microsomal CLint at 1 µM in “in vitro [3]” of 23 µL/min/mg.
Take `COC1(C)CN(C(=O)c2ccc3c(N)ncc(-c4ccc(-c5cnn(C)c5)cc4)c3c2)C1` [Compound 60]: the microsomal CLint at 1 µM in “in vitro [1]” is 64 µL/min/mg; in “in vitro [2]” it was 17 µL/min/mg; in the data set “in vitro [3]” it was 26 µL/min/mg. The “Caco-2 ER” value with Caco-2 was 7.2. Also, the “Caco-2 PappA-B” value in the data set on Caco-2 was 25.2 × 10^–6 cm/s.
The corresponding values for `Cn1cc(-c2ccc(-c3cnc(N)c4ccc(C(=O)N5CC(F)(F)C5)cc34)cc2)cn1` [Compound 61] are 123 µL/min/mg, 17 µL/min/mg, 78 µL/min/mg, 3.8 and 39.7 × 10^–6 cm/s.
Turning to `Cn1cc(-c2ccc(-c3cnc(N)c4ccc(C(=O)N5CC(C)(F)C5)cc34)cc2)cn1` [Compound 62], the microsomal CLint at 1 µM in the data set “in vitro [1]” was found to be 76 µL/min/mg; in “in vitro [2]”, 28 µL/min/mg; in the data set “in vitro [3]” it was 43 µL/min/mg. The “Caco-2 ER” value in the data set on Caco-2 is recorded as 3.4. Moreover, the “Caco-2 PappA-B” value in the data set with Caco-2 is 25.8 × 10^–6 cm/s.
